Reference: patent publication US7294629B2, “Quinazoline derivatives” (Mitsubishi Pharma Corporation, priority 2001, dated 2007)

molecular target: T1, mutated c-erbB2 (HER2) constitutively activated, in transformed NIH3T3 cells (A4 cell) (Homo sapiens, UniProt P04626, V659E); experiment: HER2 tyrosine kinase inhibitory action (phosphotyrosine Western blotting in A4 cells); assay type: cell-based; conditions: 0.1 μM, 2 hrs, signal without compound = 100%, read-out: % of control at 0.1 μM (phosphorylation signal)
T1 construct: expressed in transfected cells; host or cells: NIH3T3 mouse fibroblast cell line (A4 cell)
T1 sequence (P04626 23-1255 V659E): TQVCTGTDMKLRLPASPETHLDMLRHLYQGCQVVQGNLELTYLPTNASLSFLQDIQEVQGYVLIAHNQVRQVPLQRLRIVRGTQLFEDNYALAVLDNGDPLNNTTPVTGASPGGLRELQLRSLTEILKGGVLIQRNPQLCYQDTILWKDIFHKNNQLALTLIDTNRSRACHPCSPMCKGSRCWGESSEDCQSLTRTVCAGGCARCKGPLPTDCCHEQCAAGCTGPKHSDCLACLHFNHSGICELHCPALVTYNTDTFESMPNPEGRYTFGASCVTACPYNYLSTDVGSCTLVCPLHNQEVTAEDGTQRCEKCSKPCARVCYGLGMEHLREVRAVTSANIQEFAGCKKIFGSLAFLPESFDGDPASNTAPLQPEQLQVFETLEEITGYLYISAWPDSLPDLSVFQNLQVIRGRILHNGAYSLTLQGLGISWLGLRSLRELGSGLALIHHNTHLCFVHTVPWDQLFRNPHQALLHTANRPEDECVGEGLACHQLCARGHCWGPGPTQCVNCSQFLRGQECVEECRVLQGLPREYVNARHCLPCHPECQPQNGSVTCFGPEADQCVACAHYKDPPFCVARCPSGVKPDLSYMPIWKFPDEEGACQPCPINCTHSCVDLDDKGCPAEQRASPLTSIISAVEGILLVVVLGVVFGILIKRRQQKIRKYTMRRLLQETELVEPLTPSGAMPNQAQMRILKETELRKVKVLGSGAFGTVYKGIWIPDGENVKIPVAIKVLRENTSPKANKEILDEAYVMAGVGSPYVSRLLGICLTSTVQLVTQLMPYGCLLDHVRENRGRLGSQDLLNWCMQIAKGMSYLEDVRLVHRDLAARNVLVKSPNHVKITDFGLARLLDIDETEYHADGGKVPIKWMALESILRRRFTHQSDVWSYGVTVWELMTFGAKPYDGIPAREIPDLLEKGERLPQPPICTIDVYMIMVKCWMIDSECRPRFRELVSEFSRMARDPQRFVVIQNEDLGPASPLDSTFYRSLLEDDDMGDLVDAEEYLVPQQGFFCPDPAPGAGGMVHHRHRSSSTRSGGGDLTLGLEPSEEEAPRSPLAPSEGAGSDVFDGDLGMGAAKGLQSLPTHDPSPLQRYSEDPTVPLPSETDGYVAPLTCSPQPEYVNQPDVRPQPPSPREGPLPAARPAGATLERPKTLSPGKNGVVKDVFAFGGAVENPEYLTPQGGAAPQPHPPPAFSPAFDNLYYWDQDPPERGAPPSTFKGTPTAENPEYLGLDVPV
Experimental: (2) HER2 Tyrosine Kinase Inhibitory Action (Method)
As the cells, NIH3T3 mouse fibroblast cell line (provided by Institute of Development, Aging and Cancer, Tohoku University Cell Resource Center for Biomedical Research) transformed with mutated c-erbB2 constitutively activated by substituting valine at position 659 for glutamic acid was used. In the following, the cell is referred to as A4 cell. This cell line was cultured in DMEM/F12 mixed medium (hereinafter a complete medium) supplemented with 10% FBS in a plastic dish at 37° C., 5% CO2, 95% air.
The A4 cells suspended in a complete medium were seeded in a 12-well plate at 3×10^5/well, and confluent cells were cultured with the compound at 37° C. for 2 hrs. The cells were washed once with PBS, re-suspended in a lysis buffer (60 mM Tris (pH 6.8), 2% SDS, 10% glycerol, 5% beta-mercaptoethanol, 0.001% bromophenol blue), treated by ultrasonication and applied to Western blotting as a whole cell lysate.
The whole cell lysate (protein amount 25 μg) was applied to 7.5% SDS-polyacrylamide electrophoresis and transferred to PVDF membrane. The membrane was blocked and incubated with antiphosphotyrosine mouse monoclonal antibody in Tris buffer containing 0.1% Tween 20 and then treated with HRP-labeled antimouse second antibody. The membrane was developed with a chemiluminescent reagent. The chemiluminescence was taken with a lumino CCD camera and recorded electronically.

remaining activity at 0.1 µM	Compound
9%	C=CC(=O)Nc1cc2c(Nc3ccc(F)c(Cl)c3)ncnc2cc1C#CCCN1CCN(C)CC1 [1ac]
74%	C=CC(=O)Nc1cc2c(Nc3ccc(F)c(Cl)c3)ncnc2cc1C#CC(C)(C)N1CCNCC1 [1ap]

same assay, conditions: 1 μM, 2 hrs, signal without compound = 100%, read-out: % of control at 1 μM (phosphorylation signal)

remaining activity at 1 µM	Compound
3%	C=CC(=O)Nc1cc2c(Nc3ccc(F)c(Cl)c3)ncnc2cc1C#CCCN1CCN(C)CC1 [1ac]
24%	C=CC(=O)Nc1cc2c(Nc3ccc(F)c(Cl)c3)ncnc2cc1C#CC(C)(C)N1CCNCC1 [1ap]

molecular target: T2, EGF receptor partially purified by A431 cell line (Homo sapiens, UniProt P00533); experiment: EGFR tyrosine kinase inhibitory action (A431 cell membrane fraction, 32P-ATP, Angiotensin II substrate); assay type: biochemical; conditions: EGF-stimulated, 10 μM ATP, in ice for 30 min
T2 construct: A431 cell membrane fraction, which was used for the assay as an enzyme source of partially purified EGF receptor; endogenous in cells; host or cells: A431 human epidermoid cancer cells (membrane fraction, 100,000 G pellet)
T2 sequence (P00533 25-1210): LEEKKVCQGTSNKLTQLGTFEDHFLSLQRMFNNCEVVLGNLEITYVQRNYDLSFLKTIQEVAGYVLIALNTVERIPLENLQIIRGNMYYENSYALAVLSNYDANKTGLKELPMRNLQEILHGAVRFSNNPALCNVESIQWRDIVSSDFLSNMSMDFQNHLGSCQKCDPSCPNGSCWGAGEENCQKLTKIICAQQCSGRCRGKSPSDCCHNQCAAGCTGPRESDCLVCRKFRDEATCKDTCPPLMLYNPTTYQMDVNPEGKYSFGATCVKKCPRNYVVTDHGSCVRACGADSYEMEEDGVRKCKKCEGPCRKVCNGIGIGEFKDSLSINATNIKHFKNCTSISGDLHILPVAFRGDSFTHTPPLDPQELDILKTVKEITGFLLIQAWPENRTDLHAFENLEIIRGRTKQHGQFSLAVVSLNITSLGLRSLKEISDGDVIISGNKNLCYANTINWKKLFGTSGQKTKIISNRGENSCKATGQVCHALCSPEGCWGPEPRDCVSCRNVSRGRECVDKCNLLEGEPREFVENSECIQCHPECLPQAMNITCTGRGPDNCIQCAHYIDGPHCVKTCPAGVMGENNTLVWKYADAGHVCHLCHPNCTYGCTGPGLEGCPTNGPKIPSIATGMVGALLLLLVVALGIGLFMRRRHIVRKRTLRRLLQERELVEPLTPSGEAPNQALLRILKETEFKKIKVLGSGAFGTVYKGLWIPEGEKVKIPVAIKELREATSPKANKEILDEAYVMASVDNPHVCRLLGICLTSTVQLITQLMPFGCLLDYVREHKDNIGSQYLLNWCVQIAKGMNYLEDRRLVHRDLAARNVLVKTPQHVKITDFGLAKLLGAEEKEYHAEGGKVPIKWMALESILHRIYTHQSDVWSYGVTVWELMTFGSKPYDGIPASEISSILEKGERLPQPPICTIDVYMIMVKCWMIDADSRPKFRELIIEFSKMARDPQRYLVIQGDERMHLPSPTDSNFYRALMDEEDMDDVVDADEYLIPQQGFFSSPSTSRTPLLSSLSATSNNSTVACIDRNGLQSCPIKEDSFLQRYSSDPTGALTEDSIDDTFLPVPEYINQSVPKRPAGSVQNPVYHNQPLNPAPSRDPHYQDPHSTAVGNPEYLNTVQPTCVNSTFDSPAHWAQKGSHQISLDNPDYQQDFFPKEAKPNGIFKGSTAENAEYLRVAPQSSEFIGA
Experimental: Specific method was as follows.
A431 cells were cultured in Dulbecco's Modified Eagle Medium (DMEM) containing 10% of fetal calf serum (FBS) at 37° C. under 5% carbon dioxide gas, and homogenized in a solution containing 10 mM N-2-hydroxyethylpiperazino-N′-2-ethanesulfonic acid (Hepes) buffer (pH 7.4), 0.25 M sucrose and 0.1 mM EDTA, and separated by centrifugation at 3000 G for 5 min. The supernatant was separated by centrifugation at 100,000 G for 30 min to separate A431 cell membrane fraction, which was used for the assay as an enzyme source of partially purified EGF receptor.
The reaction was carried out in ice for 30 min and 6 μL of 10 mg/mL bovine serum albumin and 25 μL of 20% trichloroacetic acid were added to stop the reaction. The reaction mixture was left in ice as it was for 30 min.
The mixture was centrifuged at 5000 G for 2 min and the supernatant was sampled by 40 μL and adsorbed on P81 phosphocellulose paper. […] This rinsing was repeated 4 times. The paper was taken out, the ^32P count was measured on a liquid scintillation counter and this value was taken as A.
Simultaneously, a reaction without the test substance and a reaction without the test substance and EGF were also measured and the counts thereof were taken as B and C, respectively.
The tyrosine kinase inhibitory rate can be determined from the following formula based on these values. Percent Inhibition (%)=100−{(A−C)/(B−C)}×100

IC50	Compound
1.7 nM	C=CC(=O)Nc1cc2c(Nc3ccc(F)c(Cl)c3)ncnc2cc1C#CC(C)(C)N1CCC(N(C)C)CC1 [1aa]
2.1 nM	C=CC(=O)Nc1cc2c(Nc3ccc(F)c(Cl)c3)ncnc2cc1C#CC(C)(C)N(C)C1CCN(C)CC1 [1ab]
< 1 nM	C=CC(=O)Nc1cc2c(Nc3ccc(F)c(Cl)c3)ncnc2cc1C#CCCN1CCN(C)CC1 [1ac]
2.4 nM	C=CC(=O)Nc1cc2c(Nc3ccc(F)c(Cl)c3)ncnc2cc1C#CC(C)(C)N1CCNCC1 [1ap]
1.3 nM	C=CC(=O)Nc1cc2c(Nc3ccc(F)c(Cl)c3)ncnc2cc1C#CC(C)(C)N1CCOCC1 [1b]
1.1 nM	COc1cc2ncnc(Nc3ccc(F)c(Cl)c3)c2cc1C#CC(C)(C)N1CCN(C)CC1 [1ba]
2.8 nM	CCOc1cc2ncnc(Nc3ccc(F)c(Cl)c3)c2cc1C#CC(C)(C)N1CCN(C(C)=O)CC1 [1baa]
5.6 nM	CCOc1cc2ncnc(Nc3ccc(F)c(Cl)c3)c2cc1C#CC(C)(C)N(CC)CCC(=O)OC [1bab]
4 nM	CCOc1cc2ncnc(Nc3ccc(F)c(Cl)c3)c2cc1C#CC(C)(C)N1CCN(S(C)(=O)=O)CC1 [1bad]
2.5 nM	CCOc1cc2ncnc(Nc3ccc(F)c(Cl)c3)c2cc1C#CC(C)(C)N1CCN(CCC#N)CC1 [1bae]
3.3 nM	CCOc1cc2ncnc(Nc3ccc(F)c(Cl)c3)c2cc1C#CC(C)(C)N1CCC(OC)CC1 [1baf]
5.1 nM	CCOc1cc2ncnc(Nc3ccc(F)c(Cl)c3)c2cc1C#CC(CC)(CC)N1CCN(C)CC1 [1bag]
2.6 nM	CCOc1cc2ncnc(Nc3ccc(F)c(Cl)c3)c2cc1C#CC(C)(C)N1CCN(CCOC)CC1 [1bah]
1.8 nM	C#Cc1cccc(Nc2ncnc3cc(OCC)c(C#CC(C)(C)N4CCN(CC#N)CC4)cc23)c1 [1bai]
3.3 nM	C#Cc1cccc(Nc2ncnc3cc(OCC)c(C#CC(C)(C)N4CCOCC4)cc23)c1 [1baj]
3.3 nM	C#Cc1cccc(Nc2ncnc3cc(OCC)c(C#CC(C)(C)N4CCN(C)CC4)cc23)c1 [1bam]
2.6 nM	C#Cc1cccc(Nc2ncnc3cc(OCC)c(C#CC(C)(C)N(C)CCN(C)C)cc23)c1 [1ban]
1.3 nM	COc1cc2ncnc(Nc3ccc(F)c(Cl)c3)c2cc1C#CC(C)(C)N1CCN(CC#N)CC1 [1bb]
1.6 nM	COc1cc2ncnc(Nc3ccc(F)c(Cl)c3)c2cc1C#CC(C)(C)N1CCNCC1 [1bc]
3 nM	CCCN1CCN(C(C)(C)C#Cc2cc3c(Nc4ccc(F)c(Cl)c4)ncnc3cc2OC)CC1 [1bd]
8 nM	COc1cc2ncnc(Nc3ccc(F)c(Cl)c3)c2cc1C#CC(C)(C)N1CCN(CC(C)C)CC1 [1be]
0.82 nM	COc1cc2ncnc(Nc3ccc(F)c(Cl)c3)c2cc1/C=C/C(C)(C)N1CCN(C)CC1 [1bf]
4.4 nM	COc1cccc(Nc2ncnc3cc(OC)c(C#CC(C)(C)N4CCN(C)CC4)cc23)c1 [1bh]
1 nM	COc1cc2c(Nc3ccc(F)c(Cl)c3)ncnc2cc1C#CC(C)(C)N1CCN(C)CC1 [1bi]
2.9 nM	COc1cc2c(Nc3ccc(F)c(Cl)c3)ncnc2cc1C#CC(C)(C)N1CCN(CC#N)CC1 [1bj]

IC50	Compound
2.1 nM	CCOc1cc2ncnc(Nc3ccc(F)c(Cl)c3)c2cc1C#CC(C)(C)N1CCOCC1 [1bk]
2.2 nM	CCOc1cc2ncnc(Nc3ccc(F)c(Cl)c3)c2cc1C#CC(C)(C)N(C)CCOC [1bl]
2.8 nM	CCOc1cc2ncnc(Nc3ccc(F)c(Cl)c3)c2cc1C#CC(C)(C)N(C)CCC#N [1bm]
3.5 nM	CCOc1cc2ncnc(Nc3ccc(F)c(Cl)c3)c2cc1C#CC(C)(C)N1CCCCC1 [1bn]
2.2 nM	CCOc1cc2ncnc(Nc3ccc(F)c(Cl)c3)c2cc1C#CC(C)(C)N(C)CCN(C)C [1bo]
2.1 nM	CCOc1cc2ncnc(Nc3ccc(F)c(Cl)c3)c2cc1C#CC(C)(C)N1CCN(C)CC1 [1bp]
5.7 nM	CCOc1cc2ncnc(Nc3ccc(F)c(Cl)c3)c2cc1C#CC(C)(C)N(CC)CC [1br]
1.1 nM	CCOc1cc2ncnc(Nc3ccc(F)c(Cl)c3)c2cc1C#CC(C)(C)N1CCN(CC#N)CC1 [1bs]
5 nM	CCOc1cc2ncnc(Nc3ccc(F)c(Cl)c3)c2cc1C#CC1(N2CCN(C)CC2)CCCCC1 [1bt]
3.2 nM	CCOCCN(CCOCC)C(C)(C)C#Cc1cc2c(Nc3ccc(F)c(Cl)c3)ncnc2cc1OCC [1bu]
1.5 nM	CCOc1cc2ncnc(Nc3ccc(F)c(Cl)c3)c2cc1C#CC(C)(C)N1CCC(O)CC1 [1bv]
2.8 nM	CCOc1cc2ncnc(Nc3ccc(F)c(Cl)c3)c2cc1C#CC(C)(C)N1CCCN(C)CC1 [1bw]
3.4 nM	CCOc1cc2ncnc(Nc3ccc(F)c(Cl)c3)c2cc1C#CC(C)(C)NCCN1CCOCC1 [1bx]
2.2 nM	CCOc1cc2ncnc(Nc3ccc(F)c(Cl)c3)c2cc1C#CC(C)(C)N1CCN(CC)CC1 [1bz]
3.9 nM	C=CC(=O)Nc1cc2c(Nc3ccc(F)c(Cl)c3)ncnc2cc1C#CC(C)(C)N1CCN(CC#N)CC1 [1c]
7.7 nM	CC(C)(C#Cc1cc2ncnc(Nc3ccc(F)c(Cl)c3)c2cc1NS(C)(=O)=O)N1CCN(CC#N)CC1 [1ca]
2.1 nM	CN1CCN(C(C)(C)C#Cc2cc3ncnc(Nc4ccc(F)c(Cl)c4)c3cc2NS(C)(=O)=O)CC1 [1cg]
2.6 nM	CCN1CCN(C(C)(C)C#Cc2cc3ncnc(Nc4ccc(F)c(Cl)c4)c3cc2NS(C)(=O)=O)CC1 [1ch]
2.7 nM	CN1CCC(N(C)C(C)(C)C#Cc2cc3ncnc(Nc4ccc(F)c(Cl)c4)c3cc2NS(C)(=O)=O)CC1 [1cj]
5.2 nM	CN1CCN(C2(C#Cc3cc4ncnc(Nc5ccc(F)c(Cl)c5)c4cc3NS(C)(=O)=O)CCCCC2)CC1 [1cm]
3.4 nM	CCC(C#Cc1cc2ncnc(Nc3ccc(F)c(Cl)c3)c2cc1NS(C)(=O)=O)(CC)N1CCN(C)CC1 [1cr]
5.5 nM	CCN(CCC(=O)OC)C(C)(C)C#Cc1cc2ncnc(Nc3ccc(F)c(Cl)c3)c2cc1NS(C)(=O)=O [1cu]
1.8 nM	COCCN1CCN(C(C)(C)C#Cc2cc3ncnc(Nc4ccc(F)c(Cl)c4)c3cc2NS(C)(=O)=O)CC1 [1cv]
2.5 nM	CC(C)(C#Cc1cc2ncnc(Nc3ccc(F)c(Cl)c3)c2cc1NS(C)(=O)=O)N1CCN(CCC#N)CC1 [1cw]
2.8 nM	CC(C)(C#Cc1cc2ncnc(Nc3ccc(F)c(Cl)c3)c2cc1NS(C)(=O)=O)N1CCCC1 [1cx]

system: A431 tumor; experiment: In vivo antitumor effect on A431 tumor in nude mice; design: species or system Balb/c female nude mice; conditions: 1 mg/kg orally once a day for 14 days
Experimental: (4) In vivo Antitumor Effect
Human epidermoid cancer cell A431 (5×10^6/100 μl) suspended in PBS was subcutaneously implanted on the back of Balb/c female nude mice (Balb/cAJcl-nu mouse, Clea Japan, Inc., 5-week-old when purchased) and when the average volume of the implanted tumor reached approximately about 100 mm^3 in about 7 days, the mice were allocated (4 per group) to make the average tumor volume the same for each group. The tumor volume was obtained by measuring the long diameter and the short diameter with a caliper and according to: [(short diameter)^2×long diameter/2]=tumor volume [mm^3]. A pharmaceutical agent was forcibly administered orally once a day for 14 consecutive days from the day of the allocation, and the drug was not given to the mice of the control group. The relative tumor growth rate, with the tumor volume of the day of start of the administration as 1, was calculated for the control group and the treatment group. Antitumor effect (%) of control=(relative tumor growth rate of treatment group on the last day −1)/(relative tumor growth rate of control group on the last day −1)×100

Compound	% of control (antitumor effect)
C=CC(=O)Nc1cc2c(Nc3ccc(F)c(Cl)c3)ncnc2cc1C#CC(C)(C)N1CCN(C)CC1 [compound 1a.2TsOH, 1a.ditosylate]	41.0%

same assay, conditions: 1 mg/kg orally once a day for 14 days; volume at start = 1

Compound	relative tumor growth rate
C=CC(=O)Nc1cc2c(Nc3ccc(F)c(Cl)c3)ncnc2cc1C#CC(C)(C)N1CCN(C)CC1 [compound 1a.2TsOH, 1a.ditosylate]	2.95

same assay, conditions: A431 tumor, oral, 14 days

Compound	antitumor effect (in words)
C=CC(=O)Nc1cc2c(Nc3ccc(F)c(Cl)c3)ncnc2cc1C#CC(C)(C)N1CCN(C)CC1 [compound 1a.2TsOH, 1a.ditosylate]	dose-dependent antitumor effect
